Columns and labels:
Assay in all cases: Nanosyn kinase profiling
Type in all cases: biochemical
CLK3 = molecular target: T1, CLK3 (Homo sapiens, UniProt P49761); details: read-out: Percentage inhibition; for inhibition at 0.1 µM: 0.1 µM inhibitor; for inhibition at 1 µM: 1 µM inhibitor
T1 construct: purchased Nanosyn (enzymatic panel); SGC in-house recombinant human kinases (DSF panel); Invitrogen (ALK1-6)
Protocol: (§1) Percentage inhibition was determined for each kinase at both 0.1 µM and 1 µM inhibitor concentration (supplemental Table S2). […]. […]. When visualized on a kinase phylogenetic tree, these were primarily clustered within the receptor tyrosine kinases (TKs) as well as the calmodulin-dependent kinases (CAMKs) (Figure 2C).
(§2) Inhibitor selectivity profiling against 200 human kinases at 0.1 and 1 µM inhibitor concentration was performed by Nanosyn (www.nanosyn.com).

CK1γ3 = molecular target: T2, CK1γ3 (Homo sapiens, UniProt Q9Y6M4); details: read-out: Percentage inhibition; for inhibition at 0.1 µM: 0.1 µM inhibitor; for inhibition at 1 µM: 1 µM inhibitor
T2 construct: purchased Nanosyn (enzymatic panel); SGC in-house recombinant human kinases (DSF panel); Invitrogen (ALK1-6)
Protocol: as §1, §2

PDK1 = molecular target: T3, PDK1 (Homo sapiens, UniProt O15530); details: read-out: Percentage inhibition; for inhibition at 0.1 µM: 0.1 µM inhibitor; for inhibition at 1 µM: 1 µM inhibitor
T3 construct: purchased Nanosyn (enzymatic panel); SGC in-house recombinant human kinases (DSF panel); Invitrogen (ALK1-6)
T3 sequence (O15530 1-556): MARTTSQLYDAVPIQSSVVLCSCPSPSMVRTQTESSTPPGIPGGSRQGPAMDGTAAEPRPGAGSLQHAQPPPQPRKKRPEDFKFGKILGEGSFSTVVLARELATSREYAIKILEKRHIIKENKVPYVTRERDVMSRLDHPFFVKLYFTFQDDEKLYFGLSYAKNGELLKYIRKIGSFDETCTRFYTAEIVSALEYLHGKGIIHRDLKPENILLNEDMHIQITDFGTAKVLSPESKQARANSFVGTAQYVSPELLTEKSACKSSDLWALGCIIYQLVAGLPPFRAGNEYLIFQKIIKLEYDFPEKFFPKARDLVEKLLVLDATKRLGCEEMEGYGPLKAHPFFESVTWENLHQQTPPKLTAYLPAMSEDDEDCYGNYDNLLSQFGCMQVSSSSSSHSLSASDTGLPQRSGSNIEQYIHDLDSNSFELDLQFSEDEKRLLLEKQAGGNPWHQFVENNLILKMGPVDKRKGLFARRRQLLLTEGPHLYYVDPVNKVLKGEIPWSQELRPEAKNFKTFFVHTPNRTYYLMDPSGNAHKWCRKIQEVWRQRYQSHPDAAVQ
Protocol: as §1, §2

CK1γ2 = molecular target: T4, CK1γ2 (Homo sapiens, UniProt P78368); details: read-out: Percentage inhibition; for inhibition at 0.1 µM: 0.1 µM inhibitor; for inhibition at 1 µM: 1 µM inhibitor
T4 construct: purchased Nanosyn (enzymatic panel); SGC in-house recombinant human kinases (DSF panel); Invitrogen (ALK1-6)
Protocol: as §1, §2

GRK6 = molecular target: T5, GRK6 (Homo sapiens, UniProt P43250); details: read-out: Percentage inhibition; for inhibition at 0.1 µM: 0.1 µM inhibitor; for inhibition at 1 µM: 1 µM inhibitor
T5 construct: purchased Nanosyn (enzymatic panel); SGC in-house recombinant human kinases (DSF panel); Invitrogen (ALK1-6)
Protocol: as §1, §2

PAR1Bα = molecular target: T6, PAR1Bα (Homo sapiens, UniProt Q7KZI7); details: read-out: Percentage inhibition; for inhibition at 0.1 µM: 0.1 µM inhibitor; for inhibition at 1 µM: 1 µM inhibitor
T6 construct: purchased Nanosyn (enzymatic panel); SGC in-house recombinant human kinases (DSF panel); Invitrogen (ALK1-6)
Protocol: as §1, §2

ALK = molecular target: T7, ALK (Homo sapiens, UniProt Q9UM73); details: read-out: Percentage inhibition; for inhibition at 0.1 µM: 0.1 µM inhibitor; for inhibition at 1 µM: 1 µM inhibitor
T7 construct: purchased Nanosyn (enzymatic panel); SGC in-house recombinant human kinases (DSF panel); Invitrogen (ALK1-6)
Protocol: as §1, §2

ARG = molecular target: T8, ARG (Homo sapiens, UniProt P42684); details: for inhibition at 0.1 µM / inhibition at 1 µM: read-out: Percentage inhibition; for inhibition at 1 µM: 1 µM inhibitor
T8 construct: purchased Nanosyn (enzymatic panel); SGC in-house recombinant human kinases (DSF panel); Invitrogen (ALK1-6)
Protocol: as §1, §2

TNK1 = molecular target: T9, TNK1 (Homo sapiens, UniProt Q13470); details: read-out: Percentage inhibition; for inhibition at 0.1 µM: 0.1 µM inhibitor; for inhibition at 1 µM: 1 µM inhibitor
T9 construct: purchased Nanosyn (enzymatic panel); SGC in-house recombinant human kinases (DSF panel); Invitrogen (ALK1-6)
T9 sequence (Q13470 1-666): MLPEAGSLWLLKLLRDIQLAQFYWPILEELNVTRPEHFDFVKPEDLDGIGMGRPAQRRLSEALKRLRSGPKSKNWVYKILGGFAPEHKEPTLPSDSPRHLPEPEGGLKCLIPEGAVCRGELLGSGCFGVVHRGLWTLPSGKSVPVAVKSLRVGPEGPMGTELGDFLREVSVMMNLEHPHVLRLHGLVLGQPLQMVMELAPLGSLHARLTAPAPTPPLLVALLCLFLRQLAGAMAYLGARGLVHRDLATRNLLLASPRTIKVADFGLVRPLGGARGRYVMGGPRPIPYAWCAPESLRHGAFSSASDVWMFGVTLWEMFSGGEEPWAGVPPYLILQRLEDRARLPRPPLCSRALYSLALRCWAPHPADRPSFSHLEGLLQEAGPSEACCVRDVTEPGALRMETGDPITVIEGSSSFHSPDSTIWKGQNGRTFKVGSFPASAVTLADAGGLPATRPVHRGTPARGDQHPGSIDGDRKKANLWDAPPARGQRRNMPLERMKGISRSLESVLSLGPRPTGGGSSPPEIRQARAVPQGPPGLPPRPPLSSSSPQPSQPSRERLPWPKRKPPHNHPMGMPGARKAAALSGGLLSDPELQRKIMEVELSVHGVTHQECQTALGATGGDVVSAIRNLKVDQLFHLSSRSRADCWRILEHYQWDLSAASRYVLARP
Protocol: as §1, §2

CHEK2 = molecular target: T10, CHEK2 (Homo sapiens, UniProt O96017); details: read-out: Percentage inhibition; for inhibition at 0.1 µM: 0.1 µM inhibitor; for inhibition at 1 µM: 1 µM inhibitor
T10 construct: purchased Nanosyn (enzymatic panel); SGC in-house recombinant human kinases (DSF panel); Invitrogen (ALK1-6)
Protocol: as §1, §2

SGK2 = molecular target: T11, SGK2 (Homo sapiens, UniProt Q9HBY8); details: read-out: Percentage inhibition; for inhibition at 0.1 µM: 0.1 µM inhibitor; for inhibition at 1 µM: 1 µM inhibitor
T11 construct: purchased Nanosyn (enzymatic panel); SGC in-house recombinant human kinases (DSF panel); Invitrogen (ALK1-6)
T11 sequence (Q9HBY8 1-367): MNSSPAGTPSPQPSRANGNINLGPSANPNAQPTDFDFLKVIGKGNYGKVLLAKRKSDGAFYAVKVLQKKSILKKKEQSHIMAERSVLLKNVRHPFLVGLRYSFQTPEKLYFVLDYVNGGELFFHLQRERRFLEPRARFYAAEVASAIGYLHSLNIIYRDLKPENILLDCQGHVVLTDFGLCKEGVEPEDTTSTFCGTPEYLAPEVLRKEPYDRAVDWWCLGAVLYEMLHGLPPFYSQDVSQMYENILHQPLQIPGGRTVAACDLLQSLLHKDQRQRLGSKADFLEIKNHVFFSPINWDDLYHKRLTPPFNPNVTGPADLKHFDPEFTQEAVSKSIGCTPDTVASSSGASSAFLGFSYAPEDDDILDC
Protocol: as §1, §2

AURKA = molecular target: T12, AURKA (Homo sapiens, UniProt O14965); details: read-out: Percentage inhibition; for inhibition at 0.1 µM: 0.1 µM inhibitor; for inhibition at 1 µM: 1 µM inhibitor
T12 construct: purchased Nanosyn (enzymatic panel); SGC in-house recombinant human kinases (DSF panel); Invitrogen (ALK1-6)
T12 sequence (O14965 1-403): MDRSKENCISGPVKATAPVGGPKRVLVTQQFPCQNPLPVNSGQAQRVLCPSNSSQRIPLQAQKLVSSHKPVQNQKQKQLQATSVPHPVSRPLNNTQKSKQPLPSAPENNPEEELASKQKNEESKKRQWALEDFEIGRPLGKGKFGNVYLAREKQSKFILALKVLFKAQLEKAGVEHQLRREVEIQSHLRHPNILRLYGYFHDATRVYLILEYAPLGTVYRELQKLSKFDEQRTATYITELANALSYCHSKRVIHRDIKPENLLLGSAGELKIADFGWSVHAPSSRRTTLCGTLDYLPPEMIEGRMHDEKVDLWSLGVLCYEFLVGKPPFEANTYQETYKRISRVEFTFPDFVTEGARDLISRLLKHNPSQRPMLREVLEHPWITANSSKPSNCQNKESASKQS
Protocol: as §1, §2

T2 sequence (Q9Y6M4 whole entry): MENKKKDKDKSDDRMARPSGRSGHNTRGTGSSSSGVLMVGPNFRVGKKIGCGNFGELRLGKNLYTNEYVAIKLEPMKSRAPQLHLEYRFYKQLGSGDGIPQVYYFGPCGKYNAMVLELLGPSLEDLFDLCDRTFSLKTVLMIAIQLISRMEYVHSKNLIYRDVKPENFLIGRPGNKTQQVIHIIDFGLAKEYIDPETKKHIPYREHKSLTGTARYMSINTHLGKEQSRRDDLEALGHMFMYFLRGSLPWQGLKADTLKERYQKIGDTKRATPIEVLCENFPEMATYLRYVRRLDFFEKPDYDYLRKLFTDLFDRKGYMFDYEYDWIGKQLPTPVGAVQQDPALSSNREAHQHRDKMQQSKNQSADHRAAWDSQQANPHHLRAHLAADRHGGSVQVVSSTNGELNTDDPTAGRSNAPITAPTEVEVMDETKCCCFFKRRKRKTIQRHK
T6 sequence (Q7KZI7 1-725 isoform Q7KZI7-4): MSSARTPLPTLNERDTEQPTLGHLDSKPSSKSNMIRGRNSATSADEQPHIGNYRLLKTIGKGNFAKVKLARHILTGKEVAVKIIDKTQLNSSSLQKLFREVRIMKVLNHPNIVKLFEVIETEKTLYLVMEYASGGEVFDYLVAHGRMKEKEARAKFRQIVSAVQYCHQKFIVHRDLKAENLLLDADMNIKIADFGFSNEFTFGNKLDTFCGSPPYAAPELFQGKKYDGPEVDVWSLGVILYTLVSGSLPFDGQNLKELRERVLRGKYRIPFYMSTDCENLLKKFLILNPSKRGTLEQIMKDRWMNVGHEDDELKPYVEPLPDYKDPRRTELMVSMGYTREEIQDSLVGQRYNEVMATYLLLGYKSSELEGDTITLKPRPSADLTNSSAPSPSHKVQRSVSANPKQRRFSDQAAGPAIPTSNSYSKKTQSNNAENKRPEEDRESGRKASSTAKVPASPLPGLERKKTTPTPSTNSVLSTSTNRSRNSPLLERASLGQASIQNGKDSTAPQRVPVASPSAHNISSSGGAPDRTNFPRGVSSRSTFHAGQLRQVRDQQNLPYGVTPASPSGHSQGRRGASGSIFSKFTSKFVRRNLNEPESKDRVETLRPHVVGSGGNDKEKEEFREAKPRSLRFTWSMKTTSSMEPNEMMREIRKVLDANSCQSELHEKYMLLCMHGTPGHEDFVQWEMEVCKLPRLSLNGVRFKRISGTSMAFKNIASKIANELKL
T10 sequence (O96017 whole entry): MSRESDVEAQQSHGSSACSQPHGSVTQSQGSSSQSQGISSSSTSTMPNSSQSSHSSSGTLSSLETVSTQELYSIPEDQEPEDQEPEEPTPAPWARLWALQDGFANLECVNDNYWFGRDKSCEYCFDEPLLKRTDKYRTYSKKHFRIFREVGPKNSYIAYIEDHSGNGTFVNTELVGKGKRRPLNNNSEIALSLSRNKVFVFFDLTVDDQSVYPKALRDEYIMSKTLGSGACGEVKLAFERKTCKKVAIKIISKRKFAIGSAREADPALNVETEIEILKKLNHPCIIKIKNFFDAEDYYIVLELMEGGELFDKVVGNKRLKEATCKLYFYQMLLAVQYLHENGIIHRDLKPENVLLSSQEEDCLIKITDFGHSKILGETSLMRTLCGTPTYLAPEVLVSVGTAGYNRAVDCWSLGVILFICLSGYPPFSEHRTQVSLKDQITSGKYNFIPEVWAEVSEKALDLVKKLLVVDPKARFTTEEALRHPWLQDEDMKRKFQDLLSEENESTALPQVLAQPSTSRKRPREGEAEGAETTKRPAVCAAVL
T5 sequence (P43250 whole entry): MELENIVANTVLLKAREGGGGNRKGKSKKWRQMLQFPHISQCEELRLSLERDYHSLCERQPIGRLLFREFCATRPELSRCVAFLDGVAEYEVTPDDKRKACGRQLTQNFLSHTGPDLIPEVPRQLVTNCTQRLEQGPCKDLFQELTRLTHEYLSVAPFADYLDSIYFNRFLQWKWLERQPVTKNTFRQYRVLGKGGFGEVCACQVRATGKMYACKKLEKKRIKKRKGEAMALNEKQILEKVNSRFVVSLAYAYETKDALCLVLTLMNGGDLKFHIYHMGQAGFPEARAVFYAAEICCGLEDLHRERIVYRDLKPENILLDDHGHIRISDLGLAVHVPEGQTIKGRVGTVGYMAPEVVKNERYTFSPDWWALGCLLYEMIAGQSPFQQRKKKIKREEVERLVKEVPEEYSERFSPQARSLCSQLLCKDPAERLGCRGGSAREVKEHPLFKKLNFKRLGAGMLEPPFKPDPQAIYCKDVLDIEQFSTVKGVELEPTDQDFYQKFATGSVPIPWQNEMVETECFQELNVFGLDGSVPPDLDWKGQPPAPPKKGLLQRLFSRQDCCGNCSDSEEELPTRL
T7 sequence (Q9UM73 19-1620): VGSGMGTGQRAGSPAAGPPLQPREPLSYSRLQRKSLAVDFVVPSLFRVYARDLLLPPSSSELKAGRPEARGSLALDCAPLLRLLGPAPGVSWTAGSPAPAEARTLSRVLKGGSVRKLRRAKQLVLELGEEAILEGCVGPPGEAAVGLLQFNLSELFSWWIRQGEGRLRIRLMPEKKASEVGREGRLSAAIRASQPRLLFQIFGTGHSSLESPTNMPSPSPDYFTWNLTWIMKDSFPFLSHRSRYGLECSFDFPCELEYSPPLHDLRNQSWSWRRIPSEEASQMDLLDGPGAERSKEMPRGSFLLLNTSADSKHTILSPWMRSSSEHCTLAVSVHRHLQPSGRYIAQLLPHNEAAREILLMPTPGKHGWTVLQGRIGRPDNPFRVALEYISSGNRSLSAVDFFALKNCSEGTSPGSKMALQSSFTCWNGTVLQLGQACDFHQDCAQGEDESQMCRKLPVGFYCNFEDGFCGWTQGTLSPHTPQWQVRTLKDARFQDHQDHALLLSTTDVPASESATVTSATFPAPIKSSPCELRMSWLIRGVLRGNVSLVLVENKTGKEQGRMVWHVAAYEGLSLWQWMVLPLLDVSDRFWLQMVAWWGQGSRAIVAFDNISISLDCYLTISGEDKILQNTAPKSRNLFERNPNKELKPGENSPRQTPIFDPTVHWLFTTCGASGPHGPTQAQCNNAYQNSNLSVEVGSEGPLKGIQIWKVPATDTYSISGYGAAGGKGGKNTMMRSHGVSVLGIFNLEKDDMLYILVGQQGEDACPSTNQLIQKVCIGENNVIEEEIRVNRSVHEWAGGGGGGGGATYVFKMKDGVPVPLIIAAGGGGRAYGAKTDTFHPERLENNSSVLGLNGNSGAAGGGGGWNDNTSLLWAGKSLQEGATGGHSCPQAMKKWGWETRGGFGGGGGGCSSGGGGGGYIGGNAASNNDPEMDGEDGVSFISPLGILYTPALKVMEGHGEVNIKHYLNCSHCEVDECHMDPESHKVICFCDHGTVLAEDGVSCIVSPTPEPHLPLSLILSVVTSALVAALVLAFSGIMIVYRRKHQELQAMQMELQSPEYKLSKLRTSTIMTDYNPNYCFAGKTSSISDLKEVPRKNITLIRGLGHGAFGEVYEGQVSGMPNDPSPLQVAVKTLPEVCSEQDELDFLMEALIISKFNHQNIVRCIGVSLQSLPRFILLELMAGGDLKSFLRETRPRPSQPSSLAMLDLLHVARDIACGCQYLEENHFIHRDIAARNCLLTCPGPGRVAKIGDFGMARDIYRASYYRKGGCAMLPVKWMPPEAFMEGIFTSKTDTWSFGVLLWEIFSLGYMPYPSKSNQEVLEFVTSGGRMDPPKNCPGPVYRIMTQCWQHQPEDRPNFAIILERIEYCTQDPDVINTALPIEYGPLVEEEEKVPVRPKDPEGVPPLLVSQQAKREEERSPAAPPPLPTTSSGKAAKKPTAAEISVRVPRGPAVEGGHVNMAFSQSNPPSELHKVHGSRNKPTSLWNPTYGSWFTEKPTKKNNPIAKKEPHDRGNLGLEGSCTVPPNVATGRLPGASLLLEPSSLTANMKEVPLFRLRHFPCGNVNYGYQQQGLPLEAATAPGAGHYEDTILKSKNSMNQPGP
T8 sequence (P42684 whole entry): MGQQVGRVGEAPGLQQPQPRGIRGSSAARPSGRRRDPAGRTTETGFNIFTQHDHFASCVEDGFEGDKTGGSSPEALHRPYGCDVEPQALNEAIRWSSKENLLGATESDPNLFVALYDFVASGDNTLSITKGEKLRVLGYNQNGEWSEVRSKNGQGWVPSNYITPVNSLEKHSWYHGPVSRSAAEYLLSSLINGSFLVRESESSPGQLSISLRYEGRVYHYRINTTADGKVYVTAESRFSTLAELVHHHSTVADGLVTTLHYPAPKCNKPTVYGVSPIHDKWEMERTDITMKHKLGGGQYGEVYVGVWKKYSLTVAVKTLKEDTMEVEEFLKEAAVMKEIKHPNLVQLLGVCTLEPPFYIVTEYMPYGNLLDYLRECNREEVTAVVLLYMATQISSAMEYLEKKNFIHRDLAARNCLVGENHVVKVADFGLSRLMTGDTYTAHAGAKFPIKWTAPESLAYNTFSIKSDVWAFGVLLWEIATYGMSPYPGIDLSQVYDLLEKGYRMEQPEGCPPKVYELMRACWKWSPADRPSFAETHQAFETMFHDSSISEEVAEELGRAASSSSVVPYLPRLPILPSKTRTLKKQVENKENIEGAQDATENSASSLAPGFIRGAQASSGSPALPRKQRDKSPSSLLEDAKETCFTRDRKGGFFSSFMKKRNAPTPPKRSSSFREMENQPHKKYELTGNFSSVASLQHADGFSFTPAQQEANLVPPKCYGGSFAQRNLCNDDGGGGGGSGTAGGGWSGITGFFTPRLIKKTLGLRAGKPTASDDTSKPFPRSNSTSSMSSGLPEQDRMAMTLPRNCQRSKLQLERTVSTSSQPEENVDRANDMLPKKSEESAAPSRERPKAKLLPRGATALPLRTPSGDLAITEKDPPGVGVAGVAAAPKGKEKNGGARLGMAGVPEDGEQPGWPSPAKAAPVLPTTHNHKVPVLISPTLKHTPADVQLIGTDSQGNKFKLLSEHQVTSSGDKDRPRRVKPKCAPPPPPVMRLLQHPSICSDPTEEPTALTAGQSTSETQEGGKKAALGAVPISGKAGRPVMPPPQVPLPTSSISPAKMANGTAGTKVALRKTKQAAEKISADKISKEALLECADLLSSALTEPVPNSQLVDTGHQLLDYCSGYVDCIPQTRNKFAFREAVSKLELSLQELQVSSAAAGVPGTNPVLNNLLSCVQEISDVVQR

Structure (SMILES)	inhibition at 0.1 µM (CLK3) [%]	inhibition at 1 µM (CLK3) [%]	inhibition at 0.1 µM (CK1γ3) [%]	inhibition at 1 µM (CK1γ3) [%]	inhibition at 0.1 µM (PDK1) [%]	inhibition at 1 µM (PDK1) [%]	inhibition at 0.1 µM (CK1γ2) [%]	inhibition at 1 µM (CK1γ2) [%]	inhibition at 0.1 µM (GRK6) [%]	inhibition at 1 µM (GRK6) [%]	inhibition at 0.1 µM (PAR1Bα) [%]	inhibition at 1 µM (PAR1Bα) [%]	inhibition at 0.1 µM (ALK) [%]	inhibition at 1 µM (ALK) [%]	inhibition at 0.1 µM (ARG; 0.1 µM inhibitor) [%]	inhibition at 1 µM (ARG) [%]	inhibition at 0.1 µM (TNK1) [%]	inhibition at 1 µM (TNK1) [%]	inhibition at 0.1 µM (CHEK2) [%]	inhibition at 1 µM (CHEK2) [%]	further results
COc1cc(-c2cc(-c3cccc(O)c3)cnc2N)cc(OC)c1OC [K02288, 3-[6-amino-5-(3,4,5-trimethoxy-phenyl)-pyridin-3-yl]-phenol]	1.4	1.5	2.7	19	0	0.5	-1	5.5	0.2	1.4	2.3	7	-1	2.5	66	85	0.4	10	-1	2.5	Percentage inhibition (ARG; 0.1 µM inhibitor, 0.1 µM): > 50%; inhibition at 0.1 µM (SGK2): 2.7%; inhibition at 1 µM (SGK2): 1.3%; inhibition at 0.1 µM (AURKA): -2%; inhibition at 1 µM (AURKA): -1%
c1ccc2c(-c3cnn4cc(-c5ccc(N6CCNCC6)cc5)cnc34)ccnc2c1 [LDN-193189]	0.5	2.6	2.3	5.5	1.1	1.9	1.6	3.9	0	0.2	6.9	43	3.7	12	33	73	18	63	1.5	2	inhibition at 0.1 µM (SGK2): 2.3%; inhibition at 1 µM (SGK2): 0.2%; inhibition at 0.1 µM (AURKA): 4.2%; inhibition at 1 µM (AURKA): 23%

From paper PMC3639963, “A New Class of Small Molecule Inhibitor of BMP Signaling” (PLoS ONE, 2013)
